Experiments:
tobacco budworm = test: foliar treated test against tobacco budworm on chick pea plants; assay type: in vivo, Heliothis virescens; settings: sprayed chick pea foliage, 96 hour exposure, dead plus moribund insects
Experimental: Certain compounds of formula I were tested against tobacco budworm on plant foliage. The foliar treated test against tobacco budworm were conducted in the following manner:
Nine-to-ten day-old chick pea plants (Cicer arietinum) were sprayed at 15 psi to runoff on both upper and lower leaf surfaces with solutions of test compound to provide application rates as high as 1000 ppm of test chemical. The solvent used to prepare the solutions of test compound was 10% acetone or methanol (v/v) and 0.1% of the surfactant octylphenoxypolyethoxyethanol in distilled water. Four replicates, each containing one chick pea plant, for each rate of application of test compound were sprayed. The treated plants were transferred to a hood where they were kept until the spray had dried.
The four chick pea plants for each replicate treated with test compound as described above were removed from their pots by cutting the stems just above the soil line. The excised leaves and stems from the four plants in each replicate were placed in individual 237 mL (8-ounce) paper cups, which contained a moistened filter paper. Five second-instar tobacco budworm (7 days old) were counted into each cup, taking care not to cause injury. An opaque plastic lid was placed on each cup, which was then held in a growth chamber for a 96 hour exposure period at 25° C. 50% relative humidity and photo-period of 12 hours light and 12 hours dark. At the end of the 96 hour exposure period the cups were opened, and the numbers of dead, moribund, and live insects were counted. Using the insect counts, the efficacy of the test compound was expressed in percent control. Percent control is derived from the total number of dead insects (TD) plus the total number of moribund insects (TM) as compared to the total number of insects (TI) in the test:
The condition of the test plants was also observed for phytotoxicity and for reduction of feeding damage as compared to an untreated control.

[1] = test system: tobacco budworm (Heliothis virescens [Fabricius]); test: surface-treated diet test against tobacco budworm; assay type: in vivo; settings: 0.25 millimolar on surface of diet, second instar larvae, five-day exposure; for Percent Growth Inhibition: insect weight relative to untreated controls
Text: The test compounds of formula I are identified by numbers that correspond to those in Table 1.

Structure (SMILES)	Percent Control of Tobacco Budworm in a Foliar Test (tobacco budworm; 10 ppm) [%]	Percent Control of Tobacco Budworm in a Foliar Test (tobacco budworm; 30 ppm) [%]	Percent Mortality [1] [%]	Percent Growth Inhibition [1] [%]
CC1(C)Oc2ccc(OCCCCOc3c(Cl)cc(OCC=C(Cl)Cl)cc3Cl)cc2O1 [Compound 4]	15	55		
FC(F)(F)c1nc2ccc(OCCCCOc3c(Cl)cc(OCC=C(Cl)Cl)cc3Cl)cc2o1 [Compound 6, 5-(3,3-dichloroprop-2-enyloxy)-1,3-dichloro-2-{4-[2-(trifluoromethyl)benzoxazol-6-yloxy]butoxy}benzene]	70	95	100	100
FC(F)(F)c1nc2ccc(OCCCOc3c(Cl)cc(OCC=C(Cl)Cl)cc3Cl)cc2o1 [Compound 3, 5-(3,3-dichloroprop-2-enyloxy)-1,3dichloro-2-{3-[2-(trifluoromethyl)benzoxazol-6-yloxy]propoxy}benzene]	100	100	100	100
Cc1nc2cc(OCCCCCOc3c(Cl)cc(OCC=C(Cl)Cl)cc3Cl)ccc2s1 [Compound 12, 5-(3,3-dichloroprop-2-enyloxy)-1,3-dichloro-2-[5-(2-methylbenzothiazol-5-yloxy)pentyloxy]benzene]	15		100	100
